row,melting point,Compound
1,162 to 164 °C,C#Cc1ccc(CO[C@@H]2COc3nc([N+](=O)[O-])cn3C2)cc1
2,180 °C,Cc1oncc1-c1cccc(OC2SCC(O)C(O)C2O)c1 (configuration not stated)
3,132 to 134 °C,Nc1nc(-c2ccncc2)nc2c1c(Cl)nn2C1CCCC1
4,222 to 223 °C,CC(C)(C)c1cc(C=Cc2cc(C=Cc3cc(C(C)(C)C)cc(C(C)(C)C)c3)cc(CBr)c2)cc(C(C)(C)C)c1
5,130 to 131 °C,N#CCCNC(=O)c1cccc(-c2ccc3c(c2)C(c2ccc(Cl)cc2Cl)CO3)c1 (configuration not stated)
6,110 to 111 °C,CCOC(=O)C(Cc1cccnc1)c1nnc2c(CC(C)C)nc(-c3ccccc3)cn12 (configuration not stated)
7,142 to 145 °C,CC(=O)c1ccc(N2CCN(CCC3CN(C)C(=O)O3)CC2)cc1 (configuration not stated)
8,155 to 157 °C,Cc1c(C)c2c(c(C)c1NC(=O)OC(C)(C)C)C(O)(c1ccc(C(C)C)cc1)C(C)(C)O2 (configuration not stated)
9,80 °C,Cc1cccc(NC(=S)SCC(=O)C(C)(C)C)n1
10,283 to 284 °C,Cc1nc(N)c(C#N)c(NCc2cncc(Br)c2)n1
11,182 to 184 °C,CN1CCN(c2nccc(Oc3ccc(NC(=O)c4cc(F)cc(N5CCCCC5)c4)c4ccccc34)n2)CC1
12,279 to 284 °C,COc1cc2nc(Cl)nc(Nc3ccc4[nH]ncc4c3)c2cc1OC
13,144 to 146 °C,N=C(NO)c1ccc(OCCCOc2c(Cl)cc(OCC=C(Cl)Cl)cc2Cl)cc1
14,144 to 146 °C,Nc1cc(Cl)c(N2CCC(N3CCOCC3)CC2)c(Cl)c1
15,> 270 °C,Nc1cc(-n2cc(C(=O)O)c(=O)c3ccc(Cl)nc32)c(F)cc1F
16,248 °C,CC(=O)N(CCP(=O)(O)O)Cc1cc([N+](=O)[O-])cc2[nH]c(=O)c(=O)[nH]c12
17,103 to 104 °C,CCOC(=O)C1=C(COCC2CO2)NC(C)=C(C(=O)OC)C1c1cccc(Cl)c1Cl (configuration not stated)
18,195 °C,COC(=O)CCCCCCCCOC1OC(CO)C(O)C(OC2OC(CO)C(O)C(O)C2OC2OC(C)C(O)C(O)C2O)C1NC(C)=O (configuration not stated)
19,208 to 209 °C,Cc1ccc(-c2c(C(=O)NCc3ccccc3)oc(=O)c3ncccc23)cc1
20,91 to 93 °C,CON(C)C(=O)NN(C(=O)Cl)c1cccc2c1OC(C)C2 (configuration not stated)
21,109 to 111 °C,COc1ccc(CCNC(=O)NO)cc1OC
22,133 to 137 °C,CC(=O)SCC(C)C(=O)N(C(C)C(=O)O)C1CCc2ccccc21 (configuration not stated)
23,154 to 156 °C,O=C(CCc1nnc(Nc2ccccc2Cl)o1)NC1CCN(Cc2ccc(Cl)c(Cl)c2)CC1
24,136 to 137 °C,C=CCON=C(CCC)C1=C(O)CC(c2ccc(OC)c(NC(C)=O)c2)CC1=O (configuration not stated)

row,melting point,Compound
1,191 °C,O=c1[nH]c2cc(Cl)ccc2n1CCCN1CCC(O)(c2ccc(Cl)cc2)CC1
2,184 to 185 °C,CCOC(=O)c1ncn(-c2nncs2)c1Cl
3,69 to 70 °C,CCN(CC)C(=O)c1nc(C=Cc2ccc(OC)cc2)no1
4,> 300 °C,CC(=O)Nc1nc2c(s1)-c1c(c(-c3c[nH]cn3)nn1-c1ccccc1C(F)(F)F)CC2
5,134 to 137 °C,NCCOc1cc(-c2ccccn2)nc(-c2ccccn2)c1
6,188 to 190 °C,N#CCCNC(=O)c1n[nH]cc1NC(=O)c1cccc(C(F)(F)F)c1
7,97.5 to 98 °C,CCCCC(=O)N(c1ccn(C)n1)C1CCCCC1
8,113 to 114 °C,CCCC(=O)NCCc1c[nH]c2ccc(OCCN3CCCCC3)cc12
9,205 to 208 °C,OC[C@@H]1O[C@H](n2c(NC3CC3)nc3c(Br)c(Cl)c(Cl)cc32)[C@@H](O)[C@H]1O
10,106 °C,CCOC(=O)C1CC1c1cc(=O)c2ccc3ccccc3c2o1 (configuration not stated)
11,122 °C,O=C(c1ccn(S(=O)(=O)c2ccccc2)c1)c1ccc(Cl)cc1Cl
12,102 to 103 °C,OCCCc1ccc2oc(Cc3ccc4ccccc4c3)nc2c1
13,113 to 114 °C,FC(F)(F)c1nc2cnc3ccccc3c2s1
14,140 to 142 °C,O=[N+]([O-])c1ccc(NCCS(=O)(=O)NCCCOc2cccc(CN3CCCCC3)c2)cc1
15,326 to 330 °C,CC1(C)CNc2nc3cnc4ccccc4c3n2C1
16,215 to 216 °C,CCCCc1nc2c(N)nc3cc(/C=C/c4ccccc4)ccc3c2n1CC(C)C
17,137 to 138 °C,Clc1ccc(-c2cc3nccc(C4CC4)n3n2)cc1
18,128 to 130 °C,COc1cc(-n2c(=O)cc(C(F)(F)F)n(C)c2=O)c(F)cc1Cl
19,149 to 150 °C,COP(=O)(O)CC(C)=CC(N)C(=O)O (configuration not stated)
20,218 °C,NC1=NS(=O)(=O)c2cccc(Cl)c21
21,216 to 218 °C,COc1cccc(C(=O)N(C)Cc2cccc3c2C(=O)N(C2CCC(=O)NC2=O)C3=O)c1 (configuration not stated)
22,216 to 218 °C,Cc1cccc(C)c1NC(=O)NC1CC(C)(C)c2ccccc2C1(C)C (configuration not stated)
23,161 °C,COc1cc(C(=O)OCc2cc(COC(=O)c3ccc(O)c(OC)c3)cc(COC(=O)c3ccc(O)c(OC)c3)c2)ccc1O
24,118 to 119 °C,CS(=O)(=O)OCc1cc(-c2ccc3c(c2)CCO3)nn(Cc2ccccc2Cl)c1=O

row,melting point,Compound
1,73 to 75 °C,CCC1Cc2c(C)c(O)c(C)c(C)c2O1 (racemic)
2,110 °C,Cc1ccc(S(=O)(=O)n2ccc3c(C(=O)c4ccccc4O)cccc32)cc1
3,106 to 108 °C,CC(C)[Si](C(C)C)(C(C)C)C1(CO)c2ccccc2-c2ccccc21
4,78 to 81 °C,CCOC(=O)CN(CCc1ccccc1)C(=O)CCc1nc2c(F)c(F)cc(F)c2s1
5,117 to 118 °C,O=C(c1ccc2nonc2c1)N1CC=CC1
6,> 300 °C,CC1COc2c(N3Cc4ccccc4C3)c(F)cc3c(=O)c(C(=O)O)cn1c23 (configuration not stated)
7,125 to 127 °C,CN(C)c1ccc(Cn2cnc3c(Cl)ncnc32)cc1
8,169 to 171 °C,COc1ccc2c(c1)CC(=O)N2Nc1ccncc1
9,60.7 °C,CCN(CC)C(=O)C=Cc1ccc(Cl)c(Cl)c1
10,140 to 141 °C,C=C(C)CNC(=NC#N)Nc1cccnc1
11,> 225 °C,Cc1cc(-c2c3ccccc3c(Br)c3sc(C)c(C)c23)cc(C)c1OS(=O)(=O)c1ccc(C(=O)O)c(O)c1
12,231 to 232 °C,CC(=O)N(C(C)=O)c1c(I)c(C(=O)Cl)c(I)c(N(C(C)=O)C(C)=O)c1I
13,> 240 °C,N#CC1=C(C2CCCN2)Nc2n[nH]cc2C1c1cccc(C#N)c1Br (configuration not stated)
14,157 to 158 °C,O=C(CN1CCN(c2nccs2)CC1)N1CCC(O)(c2cccc(C(F)(F)F)c2)CC1
15,251 to 253 °C,CNc1nc(-c2cccc(NC(=O)c3cccnc3)c2)c2cc(OC)c(OC)cc2n1
16,236 to 238 °C,O=C(Nc1ccc(-c2ncc(-c3ccc(NC(=O)C4CCCCCC4)cc3)[nH]2)cc1)c1ccc([N+](=O)[O-])cc1
17,235 °C,O=C1NC(=O)N2c3ccccc3[C@H]3CCN4CCC[C@H]1[C@H]4[C@H]32 (racemic)
18,192 to 195 °C,CS(=O)(=O)c1ccc(-c2sc(-c3ccccc3Cl)nc2-c2ccccc2)cc1
19,190 to 192 °C,Cc1cccc(C(=O)c2cc3c(ccc4ccccc43)oc2=O)c1
20,149 to 152 °C,CCCCc1nc(Cl)c(COC)n1Cc1ccc(-c2ccccc2Cc2nnn[nH]2)cc1
21,163 to 164 °C,CC(=S)NCC1CN(c2ccc(C(=O)Oc3c(F)c(F)c(F)c(F)c3F)c(F)c2)C(=O)O1 (configuration not stated)
22,108 to 109 °C,O=C(c1cccs1)C(O)c1ccc(Cl)c(Cl)c1 (configuration not stated)
23,128 to 130 °C,Cc1cn2ccnc(Cl)c2n1
24,127 to 129 °C,O=C(O)C(CC1CCCCC1)NS(=O)(=O)c1ccc(Cl)cc1 (racemic)

row,melting point,Compound
1,204 °C,COc1ccc(C(=O)C=Cc2ccccc2)cc1C=CC(=O)O
2,231 to 232 °C,CC(C)n1nc(-c2sc(NC(=O)N3CCOCC3)nc2-c2ccccc2)ccc1=O
3,146 to 148 °C,O=C(O)CCN1C(=O)c2cccc([N+](=O)[O-])c2C1=O
4,92 to 94 °C,N#CC1(c2nnn[nH]2)CCCC1
5,214 to 215 °C,O=C(Nc1ccc2nc(CN3CCOCC3)ccc2c1)c1ccc(-c2ccccc2)cc1
6,81 to 86 °C,CC(=O)Nc1ccn(C2OC(CO[Si](c3ccccc3)(c3ccccc3)C(C)(C)C)CC2F)c(=O)n1 (configuration not stated)
7,59 to 61 °C,FC(F)(F)c1ccn(-c2cccnc2)n1
8,138 to 142 °C,COc1ccc2nc(-c3ccc(C=C4C(=O)C5(C)CCC4C5(C)C)cc3)[nH]c2c1 (configuration not stated)
9,162 to 163 °C,O=C(NC(=O)C(Br)CBr)Nc1ccc(Cl)cc1 (configuration not stated)
10,164 to 165 °C,CNS(=O)(=O)c1cc(OC)c(OC)c(C(=O)O)c1
11,82 to 86 °C,CC1(CN2CCC(Cc3ccc(F)cc3)CC2)CC(c2ccc3[nH]c(=O)oc3c2)=NO1 (configuration not stated)
12,183 to 184 °C,CCOC(=O)Cn1[nH]c(C)c(Cc2cc(Cl)cc(Cl)c2)c1=O
13,88 to 90 °C,COC(=O)COC(=O)COc1ccc([N+](=O)[O-])cc1
14,239 to 241 °C,CS(=O)(=O)c1ccc(-c2c(-c3ccccc3)[nH]c3ccccc23)cc1
15,96.8 to 98.8 °C,CC(=O)NC[C@H]1CN(c2ccc(-n3nccc3-c3ccc(Br)cc3)c(F)c2)C(=O)O1
16,94 to 95 °C,CCCCOC(=O)c1cc(=NS(=O)(=O)c2ccccc2)c2c(Cl)cc(Cl)cc2[nH]1
17,55 °C,CCCCCCCC(=O)N(CCc1ccc(CCO)cc1)S(=O)(=O)c1ccc(Cl)cc1
18,166 to 170 °C,CSC(=S)NN=Cc1c[nH]c(-c2ccccc2)n1
19,210 °C,O=C(O)c1sc2cc(OCc3cccnc3)ccc2c1S(=O)c1ccccc1CO (configuration not stated)
20,74 to 75 °C,CC(C)OC(=O)C=Cc1cc([N+](=O)[O-])ccc1Cl
21,216 to 218 °C,Clc1ccc(-c2ccc3nncn3n2)cc1
22,183 to 193 °C,O=C(Nc1cccc2cc(Br)cnc12)c1ccc(O)c(O)c1O

row,Compound,melting point
1,O=C(Nc1ccc(Cl)cc1)NC1N=C(c2ccccc2F)c2ccccc2NC1=O (racemic),278 °C
2,Cc1ncc2n1-c1ccc(Cl)cc1C(c1ccccc1)=NC2,187 to 188 °C
3,COC(=O)[C@@H]1C[C@H](N)C(=O)[C@H]2[C@@]1(C)CC[C@H]1C(=O)O[C@H](c3ccoc3)C[C@]21C,237 to 240 °C
